# PMC8464955, “Prediction of Drug–Drug Interaction Potential of Tegoprazan Using Physiologically Based Pharmacokinetic Modeling and Simulation” (Pharmaceutics, 2021)
# Where two headings read alike, the source gives them in different places.
# What was measured:
# CYP1A2 = target: T1, CYP1A2 (Homo sapiens, UniProt P05177); test: Intrinsic clearance in human liver microsomes with CYP inhibitors; type: in vitro ADME
# T1 construct: from tissue; host or cells: human liver microsomes
# T1 sequence (P05177 1-516): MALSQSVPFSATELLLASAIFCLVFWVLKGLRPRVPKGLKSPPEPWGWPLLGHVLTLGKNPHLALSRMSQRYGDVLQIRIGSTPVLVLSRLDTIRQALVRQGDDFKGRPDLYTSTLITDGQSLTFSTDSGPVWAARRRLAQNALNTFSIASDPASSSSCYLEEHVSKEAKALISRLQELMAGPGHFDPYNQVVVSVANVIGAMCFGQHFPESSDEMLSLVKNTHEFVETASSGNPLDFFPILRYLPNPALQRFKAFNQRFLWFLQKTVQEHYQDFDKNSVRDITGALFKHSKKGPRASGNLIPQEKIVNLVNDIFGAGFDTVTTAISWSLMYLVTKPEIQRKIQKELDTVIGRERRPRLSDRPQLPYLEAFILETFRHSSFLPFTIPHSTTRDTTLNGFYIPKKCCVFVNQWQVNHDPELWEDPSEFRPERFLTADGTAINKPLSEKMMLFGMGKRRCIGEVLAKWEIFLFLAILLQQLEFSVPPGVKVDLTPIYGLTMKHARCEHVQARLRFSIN
# Protocol: (§1) The elimination of the PBPK model consisted of enzyme kinetic and renal clearance (Table 1). Intrinsic clearances (CLint) of tegoprazan by various CYPs were determined by an in vitro study that measured the fraction of CLint inhibited by adding the inhibitors of CYP1A2, CYP2C9, CYP2C19, CYP2D6, and CYP3A to human liver microsomes (in-house data). Based on the in vitro data, an in vitro to in vivo extrapolation (IVIVE) approach was used to estimate the in vivo CLint by each CYP enzyme. Renal clearance as an additional clearance was used from the result of a single-oral-dose study of tegoprazan 100 mg.
# CYP3A4 = CYP3A4 intrinsic clearance by parameter estimation against clinical data; parameters: species or system human; settings: estimated from clinical data, single dose 50 mg, instead of in vitro data
# Protocol: as §1
# If the predicted PK profiles and parameters were not close enough to the observed values, the PBPK model was refined by the parameter estimation approach, in which a parameter was optimized with respect to the clinical data. Parameter estimation was conducted using the genetic algorithm method and weighted-least squares as the objective function. Four parameters were simultaneously estimated in the final step of model refinement using clinical data of single-dose PK study of tegoprazan 50 mg (Table 1). The values of Q and VSAC were estimated to reflect the biphasic distribution of tegoprazan, and the value of Kp scalar was estimated because it affected the overall PK profile, especially distribution and clearance. […]
# [1] = cited from earlier work; for AUCτ Obs. / Cmax Obs. / AUCinf Obs.: mean; for Tmax Obs.: median
# [2] = Parallel artificial membrane permeability assay (PAMPA); type: in vitro ADME
# Source text: The advanced dissolution, absorption, and metabolism model was used. The unbound fraction of the drug in enterocytes (fuGut) and the human jejunum effective permeability (Peff,man) were predicted because these values were not routinely measured (Table 1). The value of fuGut was predicted using the values of in vitro parameters, such as the octanol:water partition coefficient, the fraction of intracellular water, and other distribution-related parameters (in-house data). The value of Peff,man was predicted using parallel artificial membrane permeation assay permeability (in-house data).
# [3] = cited from earlier work
# [4] = cited from earlier work; for AUCτ Obs. / Cmax Obs.: mean; for Tmax Obs.: median
# [5] = Phase 1 clinical PK studies of tegoprazan alone in healthy male adults (observed); type: in vivo; settings: human, urine and plasma, single oral dose 100 mg, read-out: CLR (renal clearance) (converted)
# Protocol: The established PBPK model was verified by applying the predicted values to the clinical PK data from various phase 1 studies conducted with healthy male adults (Supplementary Table S2). Brief information about the clinical studies follows: study 1 (single-dose PK study), a single dose of tegoprazan 25 mg and 50 mg was orally administered; study 2 (food effect study), a single dose of tegoprazan 50 mg was orally administered in both fasted and fed states; study 3 (bioequivalence study of two formulations), a single dose of two different formulations with tegoprazan 100 mg was orally administered; study 4 (multiple-dose PK study), multiple doses of tegoprazan 50 mg and 100 mg were orally administered once daily for 7 days; study 5 (DDI study with clarithromycin), multiple doses of tegoprazan 200 mg were orally administered once daily with or without multiple doses of clarithromycin 500 mg twice daily for 5 days; and study 6 (DDI study with clarithromycin and amoxicillin), multiple doses of tegoprazan 100 mg were orally administered twice daily with or without multiple doses of clarithromycin/amoxicillin 500/1000 mg twice daily for 5 days or 7 days.
# [6] = multiple oral doses 50 mg once daily for 7 days, ref NCT03009760
# [7] = multiple oral doses 100 mg once daily for 7 days, ref NCT03009760
# [8] = single oral dose 25 mg, ref NCT03530228
# [9] = single oral dose 50 mg, NCT03530228
# [10] = tegoprazan 100 mg BID + clarithromycin 500 mg BID + amoxicillin 1000 mg BID, 7 days
# [11] = tegoprazan 100 mg BID alone for 4 days, once on day 5
# [12] = tegoprazan 200 mg QD + clarithromycin 500 mg BID for 5 days, ref NCT02052336
# [13] = tegoprazan 200 mg QD alone for 5 days, ref NCT02052336
smiles,measurement,setting,value
Cc1nc2cc(C(=O)N(C)C)cc(O[C@H]3CCOc4cc(F)cc(F)c43)c2[nH]1 [tegoprazan],CYP1A2 CLint,CYP1A2,2.5 μL/min/mg of protein
same,CYP3A4 CLint,CYP3A4,30.34 μL/min/mg of protein
same,AUCτ Obs.,[1]; [6],2954.9 ng·h/mL
same,Cmax Obs.,[1]; [6],842.8 ng/mL
same,Tmax Obs.,[1]; [6],1.00 h
same,AUCτ Obs.,[1]; [7],4768.4 ng·h/mL
same,Cmax Obs.,[1]; [7],1149.7 ng/mL
same,Tmax Obs.,[1]; [7],1.25 h
same,AUCinf Obs.,[1]; [8],1340.0 ng·h/mL
same,Cmax Obs.,[1]; [8],335.6 ng/mL
same,Tmax Obs.,[1]; [8],0.75 h
same,AUCinf Obs.,[1]; [9],2903.0 ng·h/mL
same,Cmax Obs.,[1]; [9],759.1 ng/mL
same,Tmax Obs.,[1]; [9],1.00 h
same,AUCinf Obs.,[1]; single oral dose 100 mg,5998.1 ng·h/mL
same,Cmax Obs.,[1]; single oral dose 100 mg,1434.5 ng/mL
same,Tmax Obs.,[1]; single oral dose 100 mg,1.00 h
same,Papp,[2],68.4 ×10⁻⁶ cm/s
same,apparent clearance,[3],approximately 17.6 L/h
same,mean half-life,[3],3.7 to 6.2 h
same,volume of distribution,[3],~107.9 L
same,safety and tolerability,"[3]; healthy adults, up to 400 mg single dose and 200 mg multiple doses",safe and tolerable
same,increase of systemic exposure with dose,"[3]; phase 1 clinical study, healthy adults",dose proportional
same,Cmax when administered with food,[3]; previous studies,decreased
same,time to reach Cmax when administered with food,[3]; previous studies,delayed
same,DDI between tegoprazan and amoxicillin,[4],negligible
same,"apparent clearance, DDI study result",[4]; co-administration of clarithromycin,6.6 L/h
same,AUCτ Obs.,[4]; [10],"16,045.0 μg∙h/L"
same,Cmax Obs.,[4]; [10],2285.6 ng/mL
same,Tmax Obs.,[4]; [10],2.50 h
same,AUCτ Obs.,[4]; [11],5955.9 µg·h/L
same,Cmax Obs.,[4]; [11],1018.4 ng/mL
same,Tmax Obs.,[4]; [11],1.30 h
same,AUCτ Obs.,[4]; [12],"27,796.4 μg∙h/L"
same,Cmax Obs.,[4]; [12],3096.0 ng/mL
same,Tmax Obs.,[4]; [12],1.50 h
same,AUCτ Obs.,[4]; [13],"10,817.6 μg∙h/L"
same,Cmax Obs.,[4]; [13],1868.6 ng/mL
same,Tmax Obs.,[4]; [13],1.00 h
same,"apparent clearance, DDI study result",[4]; tegoprazan alone,17.7 L/h
same,CL renal,[5],21.8 mL/min
